SMILES strings stand for the structures.

As a reminder, the logD is the decadic logarithm of the distribution of all forms, ionised or not, between an organic phase and buffer at a given pH. A word on the IC50: it is the midpoint of a concentration-inhibition curve. Read a high IC50 as a need for much substance. A word on the efflux ratio: it is a quotient of directional permeabilities that is used to spot active efflux.

Data set [1] in a line: Octanol-water distribution coefficient log Dat pH 7.4 by water-plug aspiration/injection method combined with HPLC-mass spectrometry.
The target in data set [2] is T1, Neuropeptide Y receptor type 1 (Homo sapiens, UniProt P25929).
T1 sequence (P25929 whole entry): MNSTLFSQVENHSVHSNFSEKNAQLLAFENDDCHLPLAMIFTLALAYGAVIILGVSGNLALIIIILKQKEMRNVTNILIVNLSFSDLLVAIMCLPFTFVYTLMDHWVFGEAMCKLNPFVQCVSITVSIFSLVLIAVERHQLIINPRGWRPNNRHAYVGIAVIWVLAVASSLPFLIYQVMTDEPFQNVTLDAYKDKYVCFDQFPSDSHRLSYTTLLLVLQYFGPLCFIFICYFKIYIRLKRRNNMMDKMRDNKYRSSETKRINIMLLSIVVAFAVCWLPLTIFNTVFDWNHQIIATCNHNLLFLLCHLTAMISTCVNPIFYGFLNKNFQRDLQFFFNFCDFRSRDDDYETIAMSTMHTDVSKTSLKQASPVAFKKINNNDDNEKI
Nature of the data set: Displacement of [125I]-PYY from human NPYY1 receptor overexpressed in CHO cell membrane after 120 mins by scintillation counting. Format: cell membranes. (Displacement assays read how much labelled ligand stays bound in the presence of the test substance.)

The target in data set [3] is T2, Neuropeptide Y receptor type 5 (Homo sapiens, UniProt Q15761).
T2 sequence (Q15761 whole entry): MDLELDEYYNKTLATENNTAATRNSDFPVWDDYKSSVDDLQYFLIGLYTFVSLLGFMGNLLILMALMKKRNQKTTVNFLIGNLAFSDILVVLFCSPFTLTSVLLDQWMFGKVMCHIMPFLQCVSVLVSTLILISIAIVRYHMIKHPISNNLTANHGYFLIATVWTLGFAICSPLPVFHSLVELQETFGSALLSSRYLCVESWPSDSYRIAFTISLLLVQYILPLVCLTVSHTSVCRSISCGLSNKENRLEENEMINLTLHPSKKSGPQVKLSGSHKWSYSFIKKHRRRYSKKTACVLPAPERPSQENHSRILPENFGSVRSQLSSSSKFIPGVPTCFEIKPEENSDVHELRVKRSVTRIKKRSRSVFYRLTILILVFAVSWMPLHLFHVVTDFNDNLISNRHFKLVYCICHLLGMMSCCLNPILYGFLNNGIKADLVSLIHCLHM
Nature of the data set: Displacement of [125I]-PYY from human NPYY5 receptor.

Data set [4] concerns the target T3, Neuropeptide Y receptor type 2 (Homo sapiens, UniProt P49146).
T3 sequence (P49146 whole entry): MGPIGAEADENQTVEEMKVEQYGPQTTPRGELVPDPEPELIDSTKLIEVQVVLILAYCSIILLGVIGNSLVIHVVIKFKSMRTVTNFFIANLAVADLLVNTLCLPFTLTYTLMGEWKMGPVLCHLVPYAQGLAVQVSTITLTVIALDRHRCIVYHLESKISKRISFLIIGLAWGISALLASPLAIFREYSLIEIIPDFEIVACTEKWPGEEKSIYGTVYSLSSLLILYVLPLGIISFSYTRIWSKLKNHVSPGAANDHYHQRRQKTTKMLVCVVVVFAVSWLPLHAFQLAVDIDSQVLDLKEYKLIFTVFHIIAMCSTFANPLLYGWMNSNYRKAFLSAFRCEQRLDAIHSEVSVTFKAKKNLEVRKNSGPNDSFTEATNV
Nature of the data set: Displacement of [125I]-PYY from human NPYY2 receptor.

Data set [5] has as its target Neuropeptide Y receptor type 4 (Homo sapiens, UniProt P50391). Nature of the data set: Displacement of [125I]-PYY from human NPYY4 receptor.
Data set [6] is described as follows: Ratio of permeability from basal to apical side to apical to basal side of human KB-3-1 cells by scintillation counting. Type of data set: ADME, cell-based.

Chain of Neuropeptide Y receptor type 4 (P50391 whole entry): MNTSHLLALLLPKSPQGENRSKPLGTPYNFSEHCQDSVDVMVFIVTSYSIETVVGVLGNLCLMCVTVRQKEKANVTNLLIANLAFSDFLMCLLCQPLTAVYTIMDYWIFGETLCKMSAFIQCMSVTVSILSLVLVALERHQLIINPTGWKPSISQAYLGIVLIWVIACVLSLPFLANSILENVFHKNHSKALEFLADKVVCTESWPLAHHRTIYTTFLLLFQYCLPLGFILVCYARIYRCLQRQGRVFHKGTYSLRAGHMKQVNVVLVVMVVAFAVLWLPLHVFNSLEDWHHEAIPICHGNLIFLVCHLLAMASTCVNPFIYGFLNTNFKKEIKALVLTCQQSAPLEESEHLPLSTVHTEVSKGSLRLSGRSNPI

With `Cc1nc(SCc2cc(N3CCSCC3)cc(NCc3cccc(F)n3)n2)oc1C`, the logD in data set [1] was 3.5.
In the case of `Cc1cccc(CNc2cc(N3CCOCC3)cc(CSc3nc4c(o3)CCCC4)n2)n1`, the IC50 in data set [2] is 0.46 nM. The logD in data set [1] came out at 3.5.
In data set [2], `Cc1cccc(CNc2cc(N3CCOCC3)cc(CSc3nc(C)c(C)s3)n2)n1` had an IC50 of 0.27 nM. Also, the logD in data set [1] came to 2.9.
For `Cc1cccc(CNc2cc(N3CCOCC3)cc(CSc3nc(C)c(CF)s3)n2)n1`, in that order: 0.56 nM and 2.3.
Turning to `Cc1nc(SCc2cc(N3CCS(=O)(=O)CC3)cc(NCc3cccc(F)n3)n2)oc1C`, the IC50 in data set [2] was determined as 8 nM. Besides, in data set [1], the logD was 2.3.
For `COCc1cccc(CNc2cc(N3CCOCC3)cc(CSc3nc(C)c(C)o3)n2)n1`, in that order: 4.3 nM and 2.8.
On the same counts, the results for `Cc1nc(SCc2cc(N3CCOCC3)cc(NCc3cccc(COCCF)n3)n2)oc1C` are 10 nM and 2.6.
On the same counts, the results for `Cc1cccc(CNc2cc(N3CCS(=O)(=O)CC3)cc(CSc3nc(C)c(C)o3)n2)n1` are 1.7 nM and 2.2.
In data set [2], `CCc1oc(SCc2cc(N3CCOCC3)cc(NCc3cccc(C)n3)n2)nc1C` gave an IC50 of 0.39 nM. Besides, in data set [1], the logD worked out at 3.1.
Regarding `CCc1sc(SCc2cc(N3CCOCC3)cc(NCc3cccc(C)n3)n2)nc1CF`, the half-maximal inhibitory concentration (IC50) in data set [3], in data set [4] and in data set [5] was more than 10000 nM each time.
Take `Cc1nc(SCc2cc(N3CCOCC3)cc(NCc3cccnc3F)n2)oc1C`: the IC50 in data set [2] worked out at 7.7 nM. Also, the log distribution coefficient (logD) in data set [1] stood at 3.
For `Cc1cccc(CNc2cc(N3CCOCC3)cc(CSc3nc(C)c(C)o3)n2)n1`, in that order: 0.69 nM and 2.8.
On the same counts, the results for `Cc1nc(SCc2cc(N3CCOCC3)cc(NCc3cccc(F)n3)n2)oc1C` are 1.5 nM and 3.1.
In data set [2], `Cc1nc(SCc2cc(N3CCOCC3)cc(NCc3cccc(CF)n3)n2)oc1C` displayed an IC50 of 1.8 nM. Besides, the logD in data set [1] came to 3.
As to `Cc1nc(SCc2cc(N3CCOCC3)cc(NCc3cccc(OCCF)n3)n2)oc1C`, the IC50 in data set [2] was determined as 19 nM. In addition, the pH-dependent lipophilicity (logD) in data set [1] stood at 3.9.
On the same counts, the results for `Cc1nc(SCc2cc(N3CCOCC3)cc(NCc3ccc(F)nc3)n2)oc1C` are 21 nM and 3.
On the same counts, the results for `Cc1nc(SCc2cc(N3CCOCC3)cc(NCc3ccnc(F)c3)n2)oc1C` are 5.2 nM and 3.1.
For `Cc1cccc(CNc2cc(N3CCSCC3)cc(CSc3nc(C)c(C)o3)n2)n1`, in that order: 0.16 nM and 3.6.
For `Cc1cccc(CNc2cc(N3CCOCC3)cc(CSc3nc(CF)c(C)s3)n2)n1`, the half-inhibitory concentration (IC50) in data set [3], in data set [4] and in data set [5] was more than 10000 nM in each case. The pH-dependent lipophilicity (logD) in data set [1] came out at 2.7. For the same molecule, the efflux ratio in data set [6] was determined as 1.8.

(Values after ChEMBL document CHEMBL1155324, “Synthesis and evaluation of a series of 2,4-diaminopyridine derivatives as potential positron emission tomography tracers for neuropeptide Y Y1 receptors” (Bioorg Med Chem Lett, 2009).)
